Molecular target: T1, BACE 1 (Homo sapiens, UniProt P56817)
T1 construct: soluble (transmembrane domain and cytoplasmic extension excluded) human protein; made in house; host or cells: baculovirus expression system (insect cells implied)
Assay: ECL Assay: homogeneous end point electrochemiluminescence assay with biotinylated BACE substrate
Type: biochemical
Settings: soluble human enzyme, pH 6.5
Procedure: Enzyme inhibition is determined as follows.
ECL Assay: A homogeneous end point electrochemiluminescence (ECL) assay is performed using a biotinylated BACE substrate. […] A typical reaction contains approximately 0.6 nM enzyme, 0.25 μM of the substrate, and buffer (50 mM Pipes, pH 6.5, 0.1 mg/ml BSA, 0.2% CHAPS, 15 mM EDTA and 1 mM deferoxamine) in a total reaction volume of 100 μl. […] To measure the inhibitory potency for compounds, 10 concentrations of inhibitors are prepared starting from 200 μM with three fold series dilution. Solutions of the inhibitor in DMSO are included in the reaction mixture (final DMSO concentration is 10%). All experiments are conducted at […] using the standard reaction conditions described above. To determine the IC50 of the compound, a four parameter equation is used for curve fitting.

T1 sequence (P56817 46-457 limits assumed): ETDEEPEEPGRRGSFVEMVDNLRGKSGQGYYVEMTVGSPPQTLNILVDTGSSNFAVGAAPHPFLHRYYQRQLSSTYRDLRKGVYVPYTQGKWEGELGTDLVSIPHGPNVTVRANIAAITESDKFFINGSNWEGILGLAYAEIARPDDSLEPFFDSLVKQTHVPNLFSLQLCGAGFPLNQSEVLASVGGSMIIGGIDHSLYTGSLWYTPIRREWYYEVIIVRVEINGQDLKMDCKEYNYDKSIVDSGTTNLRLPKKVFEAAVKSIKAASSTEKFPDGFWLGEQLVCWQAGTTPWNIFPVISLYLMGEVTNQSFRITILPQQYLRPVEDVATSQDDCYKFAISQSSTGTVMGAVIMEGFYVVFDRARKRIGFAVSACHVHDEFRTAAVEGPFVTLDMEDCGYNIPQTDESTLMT

Row | Compound | IC50
1 | O=C([C@@H]1CNC[C@H]1c1ccccc1Br)N1CCCC1Cc1ccccc1 (stereo partly drawn) [Example 8, 2-benzyl-1-{[(3S,4R)-4-(2-bromophenyl)pyrrolidin-3-yl]carbonyl}pyrrolidine] | 67 µM
2 | CCOc1ccc(-c2ccccc2[C@@H]2CNC[C@H]2C(=O)N2CCOC[C@@H]2c2ccccc2)cc1 [Example 12] | 18 µM
3 | CS(=O)(=O)c1ccc(-c2ccccc2[C@@H]2CNC[C@H]2C(=O)N2CCC3(C=Cc4ccccc43)CC2c2ccccc2)cc1 (stereo partly drawn) [Example 83, 1′-({(3S,4R)-4-(4′-(methylsulfonyl)biphenyl-2-yl]pyrrolidin-3-yl}carbonyl)-2′-phenylspiro-[indene-1,4′-piperidine]] | 0.38 µM

Continued by falling IC50, values first:

Row | IC50 | Compound
4 | 19 µM | O=C([C@@H]1CNC[C@H]1c1ccccc1Br)N1CCC2(C=Cc3ccccc32)CC1 [Example 38, 1-{[(3S,4R)-4-(2-bromophenyl)pyrrolidin-3-yl]carbonyl}spiro[indene-1,4′-piperidine]]
5 | 3.5 µM | CS(=O)(=O)c1ccc(-c2ccccc2[C@@H]2CNC[C@H]2C(=O)N2CCC(c3ccccc3)CC2c2ccccc2)cc1 (stereo partly drawn) [Example 76, 1-({(3S,4R)-4-[4′-(methylsulfonyl)biphenyl-2-yl]pyrrolidin-3-yl}carbonyl)-2,4-diphenylpiperidine]
6 | 3 µM | CS(=O)(=O)c1ccc(-c2ccccc2[C@@H]2CNC[C@H]2C(=O)N2CCC3(C=Cc4ccccc43)CC2)cc1 [Example 64]
7 | 1.8 µM | O=C([C@@H]1CNC[C@H]1c1ccccc1Br)N1CCC2(C=Cc3ccccc32)CC1c1ccccc1 (stereo partly drawn) [Example 79, 1′-{[(3S,4R)-4-(2-bromophenyl)pyrrolidin-3-yl]carbonyl}-2′-phenylspiro[indene-1,4′-piperidine]]
